{
  "source": "patent US20260240851A1",
  "about": "“Treatment of Parkinson's Disease in a Patient Using a Glucocerebrosidase Activator” (BIAL - R&D Investments, S.A., priority 2023, published 2026)",
  "key": {"[1]": {"experiment": "BIA 28-6156-107: safety and tolerability", "assay_type": "in vivo, human"}, "[2]": {"experiment": "LTI-291-002: CNS (NeuroCart) assessments", "assay_type": "in vivo, human", "description": "(§1) This study was a phase 1, randomized, double-blind, placebo-controlled, multiple ascending dose study of Compound A in 4 cohorts of middle-aged to elderly healthy participants (aged 52 to 75 years). […] A total of 39 healthy subjects were enrolled in 4 sequential cohorts. Subjects in each cohort received once-daily oral doses of 3 mg (n=7), 10 mg (n=8), 30 mg (n=8), or 60 mg (n=8) Compound A or placebo (n=8) for 14 days. Pharmacokinetic parameters were determined for each dose at Day 1, Day 7, and Day 14. Cerebrospinal fluid samples for Compound A concentrations were measured before the first dose and 4 hours after the last dose for each dose level. GluCer, glucosyl sphingosine (GluSph), and lactosyl-ceramide (LacCer) were measured in plasma, PBMCs, and CSF as biomarkers of pharmacological effects. Pharmacodynamic measurements consisted of battery of CNS (NeuroCart®) assessments including Saccadic Eye Movements, Smooth Pursuit Eye Movements, Adaptive Tracking, Body Sway, Visual Verbal Learning Test, and pharmaco-EEG."}, "[3]": {"experiment": "BIA 28-6156-110 DDI, metformin portion", "assay_type": "in vivo, human", "conditions": "after 6 days of dosing with 60 mg, metformin portion", "description": "In Cohort 2, a single oral dose 500 mg metformin was administered alone on Day 1. From Day 2 to Day 7, a single daily dose of 60 mg Compound A was administered."}, "[4]": {"tested_on": "GluCer, GluSph and LacCer in plasma, PBMCs and CSF", "experiment": "LTI-291-003: glycolipid biomarkers", "assay_type": "in vivo, human", "conditions": "for GluCer and LacCer in PBMCs: GBA-PD", "description": "GluCer, GluSph, and LacCer were measured in plasma, PBMCs, and CSF as biomarkers of pharmacological effects. The pharmacodynamic evaluations also consisted of a battery of NeuroCart assessments (Saccadic Eye Movements, Smooth Pursuit Eye Movements, Adaptive Tracking, Body Sway, and Visual Verbal Learning Test); functional outcome measures (MDS-UPDRS Part III, and the MMSE); and pharmaco-EEG."}, "[5]": {"experiment": "LTI-291-002: safety and tolerability", "assay_type": "in vivo, human", "description": "as §1"}, "clinical": {"experiment": "clinical", "conditions": "both, human, plasma, 60 mg; for AUC(0-t): Madopar portion, geometric mean", "experimental": "This was a Phase 1, non-randomized, open-label, 2-cohort, cross-over, DDI study in healthy male and female subjects.\nIn Cohort 2, a single oral dose 100 mg/25 mg levodopa-benserazide (Madopar®) IR was administered alone on Day 1."}, "[6]": {"experiment": "LTI-291-004: fMRI, FDG-PET and functional outcome measures", "assay_type": "in vivo, human", "description": "This study was a Phase 1B, randomized, double-blind, placebo-controlled, multiple oral dose study of Compound A in 14 subjects (aged 51 to 81 years) with GBA-PD. The objectives of this study were to investigate the safety, tolerability, and PK of multiple once-daily oral administration of Compound A and to explore the accompanying pharmacodynamic changes. Subjects received once-daily oral doses of 10 mg (n=6) or 60 mg (2×30 mg capsules) (n=6) Compound A or placebo (n=2) for 28 consecutive days. PK samples were measured once on Day 7 and Day 14 and 4 times after the last dose on Day 28. Plasma concentrations were summarized at each time point, and no PK parameters were estimated. The PD evaluations included fMRI measures; FDG-PET to determine the metabolic rate of glucose in specific regions of the brain; and functional outcome measures (MDS-UPDRS Part III and the MMSE). GluCer, GluSph, and LacCer and other sphingolipids were measured in PBMCs and plasma as biomarkers of pharmacological effect."}},
  "data": [
    {"smiles": "CCCCCO[C@H]1CC[C@H](NC(=O)c2cnn3c(C)cc(C)nc23)CC1", "note": "[Compound A, 5,7-dimethyl-N-((1S*,4S)-4-(pentyloxy)cyclohexyl)pyrazolo[1,5-a]pyrimidine-3-carboxamide]", "values": [
      {"measurement": "AEs", "setting": "[1]; 60 mg Compound A with 25 mg/100 mg immediate-release carbidopa-levodopa", "result": "No AEs were reported"},
      {"measurement": "subjects reporting AEs", "setting": "[1]; 60 mg Compound A with 300 mg extended-release carbamazepine", "result": 25.0, "unit": "%"},
      {"measurement": "subjects reporting AEs", "setting": "[1]; after 60 mg Compound A alone, 12 subjects", "result": 16.7, "unit": "%"},
      {"measurement": "SAEs", "setting": "[1]; in vivo", "result": "No SAEs were reported"},
      {"measurement": "vital signs, physical examinations, ECG parameters, C-SSRS", "setting": "[1]; in vivo", "result": "no clinically significant safety observations"},
      {"measurement": "EEG Alpha-power Pz-Oz, eyes closed", "setting": "[2]; 3 mg vs placebo", "result": "significant decrease"},
      {"measurement": "effects on CNS (Neurocart) tests", "setting": "[2]; 3-60 mg daily for 14 days", "result": "no dose-dependent effects"},
      {"measurement": "saccadic inaccuracy", "setting": "[2]; 10 and 30 mg groups vs placebo", "result": "significant increase"},
      {"measurement": "saccadic peak velocity or reaction time", "setting": "[2]; vs placebo", "result": "No changes"},
      {"measurement": "steady state concentrations of Compound A", "setting": "[3]", "result": "appeared not to have been reached"},
      {"measurement": "GluCer and LacCer in PBMCs", "setting": "[4]; 7 and 14 days of treatment", "result": "statistically significant increase"},
      {"measurement": "dose-response or exposure-response of PBMC glycolipid effects", "setting": "[4]; 10, 30, 60 mg/day", "result": "no obvious dose-response or exposure response relationship"},
      {"measurement": "plasma or CSF levels of glycolipids", "setting": "[4]; 28 days", "result": "no obvious changes"},
      {"measurement": "GluCer and LacCer in PBMCs", "setting": "[4]; 28 days of treatment", "result": "smaller increase"},
      {"measurement": "PBMC glycolipid effects by severity of GBA1 mutation", "setting": "[4]; Gaucher or major vs polymorphism GBA1 mutations", "result": "generally greater"},
      {"measurement": "Intracellular GluSph in PBMCs", "setting": "[4]; vs placebo", "result": "did not show a clear response"},
      {"measurement": "Myalgia, subjects", "setting": "[5]; 3 mg dose group", "result": 14, "unit": "%"},
      {"measurement": "Somnolence, subjects", "setting": "[5]; 3 mg dose group", "result": 14, "unit": "%"},
      {"measurement": "Myalgia, subjects", "setting": "[5]; 10 mg dose group", "result": 0, "unit": "%"},
      {"measurement": "Somnolence, subjects", "setting": "[5]; 10 mg dose group", "result": 0, "unit": "%"},
      {"measurement": "Myalgia, subjects", "setting": "[5]; 30 mg dose group", "result": 13, "unit": "%"},
      {"measurement": "Somnolence, subjects", "setting": "[5]; 30 mg dose group", "result": 0, "unit": "%"},
      {"measurement": "Myalgia, subjects", "setting": "[5]; 60 mg dose group", "result": 38, "unit": "%"},
      {"measurement": "Somnolence, subjects", "setting": "[5]; 60 mg dose group", "result": 50, "unit": "%"},
      {"measurement": "creatine kinase abnormalities", "setting": "[5]; 60 mg group", "result": "No clinically significant creatine kinase abnormalities"},
      {"measurement": "deaths, SAEs, severe AEs, discontinuations due to AEs", "setting": "[5]; 3-60 mg daily for 14 days", "result": "No deaths, other SAEs, severe AEs, or discontinuations due to AEs"},
      {"measurement": "vital signs, laboratory safety assessments, ECG parameters", "setting": "[5]; 14 days", "result": "no clinically significant safety observations"},
      {"measurement": "AE back pain, subjects", "setting": "[5]; all Compound A groups", "result": 13, "unit": "%"},
      {"measurement": "AE headache, subjects", "setting": "[5]; all Compound A groups", "result": 39, "unit": "%"},
      {"measurement": "AE myalgia, subjects", "setting": "[5]; all Compound A groups", "result": 16, "unit": "%"},
      {"measurement": "AE somnolence, subjects", "setting": "[5]; all Compound A groups", "result": 16, "unit": "%"},
      {"measurement": "Cmax", "setting": "clinical", "result": 2030, "unit": "ng/mL"},
      {"measurement": "Tmax", "setting": "clinical", "result": 2, "unit": "h"},
      {"measurement": "AUC(0-t)", "setting": "clinical; AUC0-24, 60 mg Compound A alone", "result": 24000, "unit": "ng·h/mL"},
      {"measurement": "AUC(0-t)", "setting": "clinical; AUC0-t, 60 mg Compound A alone", "result": 22800, "unit": "ng·h/mL"},
      {"measurement": "default mode network (DMN) assessed by fMRI", "setting": "[6]; 10 or 60 mg daily for 28 days, differences not statistically significant", "result": "improved the default mode network"},
      {"measurement": "MDS-UPDRS III and MMSE scores", "setting": "[6]; Day 28 vs Day -1, all subjects", "result": "unchanged"}
    ]}
  ]
}
